Test results from publication PMC8876525 (Viruses, 2022).

Assays:
HBV [1] = assay: HepG2-NTCP de novo HBV infection model (viral markers, cccDNA Taq-Man qPCR); assay type: cell-based; conditions: HepG2-NTCP cells, 5 μM
HepAD38 cells = assay: CCK-8 cytotoxicity assay in HepAD38 cells; assay type: cell-based, Human
[2] = CCK-8 cytotoxicity assay in HepAD38 cells; assay type: cell-based, Human; conditions: human, 6 days
HBV [3] = assay: Secreted HBV DNA in HepAD38 culture supernatant (RT-qPCR); assay type: cell-based; conditions: HepAD38 cells
HBsAg = assay: Secreted HBsAg ELISA; assay type: cell-based, HBV; conditions: 6 days, ETV 25 nM, BAY 41-4109 2 μM
HBV capsid = HBV capsid (Hepatitis B virus genotype D subtype ayw, UniProt P03146); assay: Intracellular HBV capsid formation; assay type: cell-based; conditions: HepAD38 or HepG2-HBV1.3 cells, compounds 10 μM, ETV 25 nM, BAY 41-4109 2 μM, 6 days
Sequence of HBV capsid (P03146 whole entry): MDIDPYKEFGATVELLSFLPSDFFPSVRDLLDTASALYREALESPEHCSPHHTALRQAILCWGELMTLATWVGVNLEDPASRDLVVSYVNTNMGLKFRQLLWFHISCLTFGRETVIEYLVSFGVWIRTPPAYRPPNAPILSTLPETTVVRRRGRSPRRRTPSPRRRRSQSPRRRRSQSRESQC

Cp149 protein = Cp149 protein (Hepatitis B virus genotype D subtype ayw, UniProt P03146); assay: Cp149 capsid assembly in vitro, transmission electron microscopy; assay type: biochemical, HBV; conditions: Cp149 5 μM dimer, 300 mM NaCl, 150 mM HEPES pH 7.5; BAY 41-4109 5 μM 3 days, C-39 20 μM 3 and 7 days
Sequence of Cp149 protein (P03146 1-149): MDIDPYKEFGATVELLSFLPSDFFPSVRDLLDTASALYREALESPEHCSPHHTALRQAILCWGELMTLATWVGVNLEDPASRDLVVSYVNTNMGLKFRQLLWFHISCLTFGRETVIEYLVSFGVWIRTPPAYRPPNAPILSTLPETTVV

HBc = HBc (Hepatitis B virus genotype D subtype ayw, UniProt P03146); assay: Immunofluorescence of HBV core protein in HepAD38 cells; assay type: cell-based; conditions: 3 days, BAY 41-4109 2 μM
Sequence of HBc (P03146 whole entry): as the sequence (P03146 whole entry) above

HBV encapsidated pgRNA = assay: Encapsidated pgRNA and total HBV RNAs (Northern blot); assay type: cell-based; conditions: HepAD38 cells, BAY 41-4109 2 μM
[4] = CCK-8 cytotoxicity assay in HepG2-HBV1.3 (HepG2) cells; assay type: cell-based; conditions: human
HBV [5] = assay: Secreted HBV DNA in HepG2-HBV1.3 culture supernatant (RT-qPCR); assay type: cell-based; conditions: Hepatitis B virus, 144 h; HepG2-HBV1.3 cells, 6 days
[6] = system: ETV-resistant mutant (rtL180M/S202G/M204V) HBV; assay: Drug susceptibility assay, HepG2 transfected with ETV-resistant mutant; assay type: cell-based; conditions: Hepatitis B virus, HepG2, 144 h, read-out: viral replication EC50
wild-type HBV = assay: Drug susceptibility assay, HepG2 transfected with HBV1.1-WT; assay type: cell-based; conditions: Hepatitis B virus, 144 h; wild-type HBV in HepG2, secreted HBV DNA, 6 days; read-out: viral replication EC50
HBeAg = assay: Secreted HBeAg ELISA; assay type: cell-based, HBV; conditions: 6 days
HBV core DNA = assay: Intracellular HBV core DNA (qPCR) and replicative intermediates (Southern blot); assay type: cell-based; conditions: 6 days, qPCR
HBV 3.5 kb RNA = assay: Intracellular HBV 3.5 kb RNA (RT-qPCR); assay type: cell-based; conditions: 6 days

CCOC(=O)c1c(S(=O)(=O)N2CCCC(C(=O)Nc3ccc(F)c(Cl)c3)C2)c(C)n(C)c1C (stereo not drawn) [Compound C-39]
Effect on cccDNA formation, treatment together with viral inoculum (day 0) (HBV [1]): prevented the formation of cccDNA during the early postentry step
Effect on pre-established cccDNA, treatment 4 days after infection (day 4) (HBV [1]): minor effect
Cytotoxicity in words (HepAD38 cells): no obvious toxicity
CC50 at 6 days [2]: > 100000 nM
HBV DNA secretion and intracellular HBV DNA in combination with ETV vs ETV alone (HBV [3]; 5 nM ETV together with C-39 0-10 μM): further inhibition
EC50 (HBV [3]; Hepatitis B virus, 144 h, 6 days, read-out: EC50 (secreted HBV DNA)): 56 ± 13 nM
Effect on secreted HBsAg (HBsAg; HepAD38 cells): no impact on HBsAg production
Effect on secreted HBsAg (HBsAg; HepG2-HBV1.3 cells): no impact on HBsAg production
Effect on intracellular HBV capsid formation at single concentration (HBV capsid): dramatically inhibited capsid formation
Morphology of assembled Cp149 particles (TEM) (Cp149 protein): effectively accelerated the formation of capsid-like particles with time
HBc localisation / aggregation (HBc; C-18 and C-39 5 μM): induced punctate HBc aggregation within the nucleus
HBc level by immunofluorescence (HBc; C-39 5 μM): significantly decreased the HBc level
Effect on intracellular total HBV RNAs (HBV encapsidated pgRNA; C-18, C-39 5 μM): slight decrease
Effect on HBV encapsidated pgRNA (HBV encapsidated pgRNA; C-18, C-39, C-19 5 μM, ETV 25 nM): markedly downregulated
CC50 at 6 days [4]: > 100000 nM
EC50 (HBV [5]): 75 ± 16 nM
EC50 [6]: 84 nM
EC50 (wild-type HBV): 78 nM
Effect on secreted HBeAg (HBeAg; HepAD38 cells): markedly reduced
Effect on secreted HBeAg (HBeAg; HepG2-HBV1.3 cells): markedly reduced
Effect on intracellular HBV core DNA (HBV core DNA; HepAD38 cells): markedly reduced
Effect on intracellular HBV core DNA (HBV core DNA; HepG2-HBV1.3 cells): markedly reduced
Effect on intracellular HBV 3.5 kb RNA (HBV 3.5 kb RNA; HepAD38 cells): markedly reduced
Effect on intracellular HBV 3.5 kb RNA (HBV 3.5 kb RNA; HepG2-HBV1.3 cells): markedly reduced
